Patent publication US6919090B2, “Active substance combinations with insecticidal and acaricidal properties” (priority 2000, dated 2005)

Experiments:
Assay type in all cases: in vivo
[1] = test system: normally sensitive caterpillars of the diamondback moth (Plutella xylostella); assay: Plutella Test (normally sensitive), cabbage leaf dip
Description: (§1) The expected action for a given combination of two active compounds can be calculated as follows, using the formula of S. R. Colby, Weeds 15 (1967), 20-22: • If • X is the kill rate, expressed as % of the untreated control, when employing active compound A at an application rate of m g/ha or in a concentration of m ppm, • Y is the kill rate, expressed as % of the untreated control, when employing active compound B at an application rate of n g/ha or in a concentration of n ppm and • E is the kill rate, expressed as % of the untreated control, when employing active compounds A and B at application rates of m and n g/ha or in a concentration of m and n ppm, • then [formula]
(§2) If the actual insecticidal kill rate exceeds the calculated value, the action of the combination is superadditive, i.e. a synergistic effect is present. In this case, the actually observed kill rate must exceed the value calculated using the above formula for the expected kill rate (E).
Plutella Test (Normally Sensitive)
To produce a suitable preparation of active compound, 1 part by weight of active compound is mixed with the stated amounts of solvent and emulsifier, and the concentrate is diluted with emulsifier-containing water to the desired concentration. […]
After the desired period of time, the kill in % is determined. […] The kill rates determined are calculated using Colby's formula.

[2] = test system: caterpillars of the army worm (Spodoptera frugiperda); assay: Spodoptera frugiperda Test, cabbage leaf dip
Description: as §1, §2
Spodoptera frugiperda Test
To produce a suitable preparation of active compound, 1 part by weight of active compound is mixed with the stated amounts of solvent and emulsifier, and the concentrate is diluted with emulsifier-containing water to the desired concentration. Cabbage leaves (Brassica oleracea) are treated by being dipped into the preparation of active compound of the desired concentration and are populated with caterpillars of the army worm (Spodoptera frugiperda) while the leaves are still moist.
(§3) After the desired period of time, the kill in % is determined. 100% means that all caterpillars have been killed; 0% means that none of the caterpillars have been killed. The kill rates determined are calculated using Colby's formula.

[3] = test system: resistant caterpillars of the diamondback moth (Plutella xylostella); assay: Plutella Test (resistant), cabbage leaf dip
Description: as §1, §2
Plutella Test (Resistant)
To produce a suitable preparation of active compound, 1 part by weight of active compound is mixed with the stated amounts of solvent and emulsifier, and the concentrate is diluted with emulsifier-containing water to the desired concentration.
Cabbage leaves (Brassica oleracea) are treated by being dipped into the preparation of active compound of the desired concentration and are populated with resistant caterpillars of the diamondback moth (Plutella xylostella) while the leaves are still moist.
as §3

Cc1cc(C)c(C2=C(OC(=O)CC(C)(C)C)C3(CCCC3)OC2=O)c(C)c1 [Ex. I-b-1]
Kill rate in % after 3 d ([1]; 100 ppm): 40%
Kill rate in % after 7 d ([2]; 100 ppm): 0%
Kill rate in % after 7 d ([3]; 100 ppm): 35%
Kill rate in % after 7 d ([3]; 500 ppm): 40%

Emamectin-benzoate
Kill rate in % after 7 d ([2]; 0.16 ppm): 55%

COC(=O)N(C(=O)N1COC2(C(=O)OC)Cc3cc(Cl)ccc3C2=N1)c1ccc(OC(F)(F)F)cc1 (stereo not drawn) [Indoxacarb, indoxacarb]
Kill rate in % after 3 d ([1]; 0.16 ppm): 15%
Kill rate in % after 7 d ([3]; 0.16 ppm): 90%

N#Cc1nn(-c2c(Cl)cc(C(F)(F)F)cc2Cl)c(N)c1[S+]([O-])C(F)(F)F (stereo not drawn) [Fipronil, fipronil]
Kill rate in % after 7 d ([2]; 0.8 ppm): 20%
Kill rate in % after 7 d ([3]; 0.032 ppm): 40%
